How the values were obtained:
SK-OV-3 [1] = assay: Antitumor activity against human SKOV3 cells xenografted in BALB/c nude mouse assessed as tumor growth inhibition at 80 mg/kg, po administered once daily for 21 days relative to control; format: functional; settings: SK-OV-3, po, 504 h, read-out: TGI
[2] = Volume of distribution in ICR mouse at 40 mg/kg, ig measured up to 48 hrs by LC-MS/MS analysis; format: ADME, organism-based; settings: in vivo, po
[3] = biological target: Potassium voltage-gated channel subfamily A member 2 (Homo sapiens, UniProt P16389); assay: Inhibition of Kv1.2 (unknown origin) at 3 uM relative to control
SK-OV-3 [4] = assay: Antitumor activity against human SKOV3 cells xenografted in BALB/c nude mouse assessed as tumor growth inhibition at 40 mg/kg, po BID for 21 days; format: functional; settings: SK-OV-3, po, 504 h, read-out: TGI
[5] = biological target: ATP-sensitive inward rectifier potassium channel 1 (Homo sapiens, UniProt P48048); assay: Inhibition of Kir1.1 (unknown origin) at 3 uM relative to control
[6] = MRT (0 to t) in Sprague-Dawley rat at 40 mg/kg, ig measured up to 24 hrs by LC-MS/MS analysis; format: ADME, organism-based; settings: in vivo, po
[7] = Toxicity in BALB/c nude mouse xenografted with human SKOV3 cells assessed as reduction in mouse survival at 60 to 80 mg/kg, po administered once daily for 21 days; format: organism-based; settings: in vivo, 504 h
[8] = Toxicity in ICR mouse assessed as effect on body weight at 80 to 160 mg/kg, ig administered once daily for 7 days; format: organism-based; settings: in vivo, po, 168 h
[9] = biological target: T1, Serine/threonine-protein kinase Sgk1 (Homo sapiens, UniProt O00141); assay: Inhibition of human SGK by mobility shift assay
T1 sequence (O00141 whole entry): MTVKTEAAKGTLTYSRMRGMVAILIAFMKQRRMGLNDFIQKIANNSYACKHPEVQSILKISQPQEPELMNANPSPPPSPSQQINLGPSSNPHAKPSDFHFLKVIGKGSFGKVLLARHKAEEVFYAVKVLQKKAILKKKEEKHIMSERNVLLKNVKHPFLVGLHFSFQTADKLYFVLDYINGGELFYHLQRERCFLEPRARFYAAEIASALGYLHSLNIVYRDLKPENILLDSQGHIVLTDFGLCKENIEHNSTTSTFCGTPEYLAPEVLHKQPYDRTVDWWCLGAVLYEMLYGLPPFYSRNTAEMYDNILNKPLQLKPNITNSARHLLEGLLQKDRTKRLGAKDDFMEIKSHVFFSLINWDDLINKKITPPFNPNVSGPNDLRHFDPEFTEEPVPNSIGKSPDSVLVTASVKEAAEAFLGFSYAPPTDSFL

[10] = Toxicity in ICR mouse assessed as effect on serum hematology at 80 to 160 mg/kg, ig; format: organism-based; settings: in vivo, po
[11] = MRT (0 to t) in ICR mouse at 40 mg/kg, ig measured up to 48 hrs by LC-MS/MS analysis; format: ADME, organism-based; settings: in vivo, po
Protein kinase C (PKC) = assay: Inhibition of PKC (unknown origin); format: protein assay, Homo sapiens
[12] = biological target: Sodium channel protein type 9 subunit alpha (Homo sapiens, UniProt Q15858); assay: Inhibition of Nav1.7 (unknown origin)
[13] = Microsomal stability in mouse liver microsomes assessed as compound remaining at 100 ug/ml in presence of NADPH measured at 1.5 hrs by LC/MS analysis; format: ADME, Microsome; settings: read-out: Stability
[14] = Toxicity in BALB/c nude mouse xenografted with human SKOV3 cells assessed as reduction in mouse survival at 40 mg/kg, po BID for 21 days; format: organism-based; settings: in vivo, 504 h
[15] = Volume of distribution in Sprague-Dawley rat at 40 mg/kg, ig measured up to 24 hrs by LC-MS/MS analysis; format: ADME, organism-based; settings: in vivo, po
[16] = AUC (0 to t) in ICR mouse at 40 mg/kg, ig measured up to 48 hrs by LC-MS/MS analysis; format: ADME, organism-based; design: time < 48 hr, dose 40 mg/kg, route […]; settings: in vivo, po
[17] = Microsomal stability in monkey liver microsomes assessed as compound remaining at 100 ug/ml in presence of NADPH measured at 1.5 hrs by LC/MS analysis; format: ADME, Macaca mulatta, Microsome; settings: rhesus monkey, read-out: Stability
[18] = Clearance in Sprague-Dawley rat at 40 mg/kg, ig measured up to 24 hrs by LC-MS/MS analysis; format: ADME, organism-based; settings: in vivo, po
OVCAR-8 = assay: Antiproliferative activity against human OVCAR8 cells; format: functional, cell-based
[19] = biological target: Inward rectifier potassium channel 2 (Homo sapiens, UniProt P63252); assay: Inhibition of Kir2.1 (unknown origin) at 3 uM relative to control
[20] = Clearance in ICR mouse at 40 mg/kg, ig measured up to 48 hrs by LC-MS/MS analysis; format: ADME, organism-based; settings: in vivo, po
[21] = Toxicity in BALB/c nude mouse xenografted with human SKOV3 cells assessed as effect on body weight at 40 mg/kg, po BID for 21 days; format: organism-based; settings: in vivo, 504 h
[22] = Toxicity in ICR mouse assessed as maximum tolerated dose, ig administered once daily for 7 days; settings: in vivo, po
LNCaP = assay: Antiproliferative activity against human LNCAP cells; format: functional, cell-based
[23] = biological target: Potassium voltage-gated channel subfamily A member 6 (Homo sapiens, UniProt P17658); assay: Inhibition of Kv1.6 (unknown origin) at 3 uM relative to control
[24] = Toxicity in ICR mouse assessed as induction of intestinal hemorrhage at 80 to 160 mg/kg, ig; format: organism-based; settings: in vivo, po
[25] = biological target: RAC-gamma serine/threonine-protein kinase (Homo sapiens, UniProt Q9Y243); assay: Inhibition of Akt3 (unknown origin) by mobile shift assay
SK-OV-3 [26] = assay: Induction of apoptosis in human SKOV3 cells at 10 uM by FACS based flow cytometric analysis (reference value: 7.63%); format: functional
[27] = Cmax in ICR mouse at 40 mg/kg, ig measured up to 48 hrs by LC-MS/MS analysis; format: ADME, organism-based; design: dose 40 mg/kg, route […]; settings: in vivo, po
SK-OV-3 [28] = assay: Antitumor activity against human SKOV3 cells xenografted in BALB/c nude mouse assessed as tumor growth inhibition at 60 mg/kg, po administered once daily for 21 days relative to control; format: functional; settings: SK-OV-3, po, 504 h, read-out: TGI

Sequence of Potassium voltage-gated channel subfamily A member 6 (P17658 whole entry): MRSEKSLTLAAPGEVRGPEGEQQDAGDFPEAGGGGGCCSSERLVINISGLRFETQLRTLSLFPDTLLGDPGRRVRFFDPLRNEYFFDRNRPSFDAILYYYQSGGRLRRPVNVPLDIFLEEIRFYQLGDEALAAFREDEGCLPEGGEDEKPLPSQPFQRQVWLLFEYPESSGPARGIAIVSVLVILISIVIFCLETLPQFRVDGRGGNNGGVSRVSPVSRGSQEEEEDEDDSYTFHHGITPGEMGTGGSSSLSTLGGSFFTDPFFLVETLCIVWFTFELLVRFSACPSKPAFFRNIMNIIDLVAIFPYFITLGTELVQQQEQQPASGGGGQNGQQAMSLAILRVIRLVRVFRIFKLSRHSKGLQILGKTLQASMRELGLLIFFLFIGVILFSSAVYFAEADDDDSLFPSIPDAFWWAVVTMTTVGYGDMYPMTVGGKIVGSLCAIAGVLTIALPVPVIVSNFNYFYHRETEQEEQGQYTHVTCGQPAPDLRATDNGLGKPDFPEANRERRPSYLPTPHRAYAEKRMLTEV
Sequence of ATP-sensitive inward rectifier potassium channel 1 (P48048 whole entry): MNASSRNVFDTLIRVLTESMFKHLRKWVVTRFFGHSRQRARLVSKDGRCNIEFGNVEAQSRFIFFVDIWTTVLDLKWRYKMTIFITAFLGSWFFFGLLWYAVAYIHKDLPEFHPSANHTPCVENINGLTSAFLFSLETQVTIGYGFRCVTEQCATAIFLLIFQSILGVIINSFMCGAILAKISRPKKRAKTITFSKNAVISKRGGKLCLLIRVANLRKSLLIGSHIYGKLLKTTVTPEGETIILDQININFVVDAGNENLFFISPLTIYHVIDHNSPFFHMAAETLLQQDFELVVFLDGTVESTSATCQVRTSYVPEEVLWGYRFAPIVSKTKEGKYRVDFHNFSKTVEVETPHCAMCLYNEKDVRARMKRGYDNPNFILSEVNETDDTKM
Sequence of Inward rectifier potassium channel 2 (P63252 whole entry): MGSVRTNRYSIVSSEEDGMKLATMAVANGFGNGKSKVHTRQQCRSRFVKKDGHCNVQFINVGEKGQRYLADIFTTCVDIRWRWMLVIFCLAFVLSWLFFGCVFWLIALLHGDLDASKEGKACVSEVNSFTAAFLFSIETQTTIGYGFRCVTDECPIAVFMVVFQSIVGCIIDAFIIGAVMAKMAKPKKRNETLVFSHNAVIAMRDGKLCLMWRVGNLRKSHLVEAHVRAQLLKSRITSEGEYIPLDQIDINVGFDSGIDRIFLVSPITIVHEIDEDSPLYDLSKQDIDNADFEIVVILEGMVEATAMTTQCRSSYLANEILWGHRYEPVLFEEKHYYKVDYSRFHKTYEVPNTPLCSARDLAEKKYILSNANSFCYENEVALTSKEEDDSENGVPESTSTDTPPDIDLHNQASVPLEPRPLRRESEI
Sequence of RAC-gamma serine/threonine-protein kinase (Q9Y243 whole entry): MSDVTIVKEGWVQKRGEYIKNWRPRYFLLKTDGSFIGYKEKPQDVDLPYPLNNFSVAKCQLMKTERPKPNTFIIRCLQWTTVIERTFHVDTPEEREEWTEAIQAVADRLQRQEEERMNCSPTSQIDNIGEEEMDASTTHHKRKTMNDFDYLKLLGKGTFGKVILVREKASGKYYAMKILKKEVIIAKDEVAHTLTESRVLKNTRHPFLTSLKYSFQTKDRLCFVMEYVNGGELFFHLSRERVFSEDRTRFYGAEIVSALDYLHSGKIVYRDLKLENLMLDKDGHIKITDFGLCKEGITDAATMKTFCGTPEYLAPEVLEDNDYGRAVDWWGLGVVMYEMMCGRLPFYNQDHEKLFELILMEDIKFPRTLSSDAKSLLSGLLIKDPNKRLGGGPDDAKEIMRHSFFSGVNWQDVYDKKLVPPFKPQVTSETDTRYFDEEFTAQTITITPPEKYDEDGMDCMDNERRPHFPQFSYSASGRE
Sequence of Sodium channel protein type 9 subunit alpha (Q15858 whole entry): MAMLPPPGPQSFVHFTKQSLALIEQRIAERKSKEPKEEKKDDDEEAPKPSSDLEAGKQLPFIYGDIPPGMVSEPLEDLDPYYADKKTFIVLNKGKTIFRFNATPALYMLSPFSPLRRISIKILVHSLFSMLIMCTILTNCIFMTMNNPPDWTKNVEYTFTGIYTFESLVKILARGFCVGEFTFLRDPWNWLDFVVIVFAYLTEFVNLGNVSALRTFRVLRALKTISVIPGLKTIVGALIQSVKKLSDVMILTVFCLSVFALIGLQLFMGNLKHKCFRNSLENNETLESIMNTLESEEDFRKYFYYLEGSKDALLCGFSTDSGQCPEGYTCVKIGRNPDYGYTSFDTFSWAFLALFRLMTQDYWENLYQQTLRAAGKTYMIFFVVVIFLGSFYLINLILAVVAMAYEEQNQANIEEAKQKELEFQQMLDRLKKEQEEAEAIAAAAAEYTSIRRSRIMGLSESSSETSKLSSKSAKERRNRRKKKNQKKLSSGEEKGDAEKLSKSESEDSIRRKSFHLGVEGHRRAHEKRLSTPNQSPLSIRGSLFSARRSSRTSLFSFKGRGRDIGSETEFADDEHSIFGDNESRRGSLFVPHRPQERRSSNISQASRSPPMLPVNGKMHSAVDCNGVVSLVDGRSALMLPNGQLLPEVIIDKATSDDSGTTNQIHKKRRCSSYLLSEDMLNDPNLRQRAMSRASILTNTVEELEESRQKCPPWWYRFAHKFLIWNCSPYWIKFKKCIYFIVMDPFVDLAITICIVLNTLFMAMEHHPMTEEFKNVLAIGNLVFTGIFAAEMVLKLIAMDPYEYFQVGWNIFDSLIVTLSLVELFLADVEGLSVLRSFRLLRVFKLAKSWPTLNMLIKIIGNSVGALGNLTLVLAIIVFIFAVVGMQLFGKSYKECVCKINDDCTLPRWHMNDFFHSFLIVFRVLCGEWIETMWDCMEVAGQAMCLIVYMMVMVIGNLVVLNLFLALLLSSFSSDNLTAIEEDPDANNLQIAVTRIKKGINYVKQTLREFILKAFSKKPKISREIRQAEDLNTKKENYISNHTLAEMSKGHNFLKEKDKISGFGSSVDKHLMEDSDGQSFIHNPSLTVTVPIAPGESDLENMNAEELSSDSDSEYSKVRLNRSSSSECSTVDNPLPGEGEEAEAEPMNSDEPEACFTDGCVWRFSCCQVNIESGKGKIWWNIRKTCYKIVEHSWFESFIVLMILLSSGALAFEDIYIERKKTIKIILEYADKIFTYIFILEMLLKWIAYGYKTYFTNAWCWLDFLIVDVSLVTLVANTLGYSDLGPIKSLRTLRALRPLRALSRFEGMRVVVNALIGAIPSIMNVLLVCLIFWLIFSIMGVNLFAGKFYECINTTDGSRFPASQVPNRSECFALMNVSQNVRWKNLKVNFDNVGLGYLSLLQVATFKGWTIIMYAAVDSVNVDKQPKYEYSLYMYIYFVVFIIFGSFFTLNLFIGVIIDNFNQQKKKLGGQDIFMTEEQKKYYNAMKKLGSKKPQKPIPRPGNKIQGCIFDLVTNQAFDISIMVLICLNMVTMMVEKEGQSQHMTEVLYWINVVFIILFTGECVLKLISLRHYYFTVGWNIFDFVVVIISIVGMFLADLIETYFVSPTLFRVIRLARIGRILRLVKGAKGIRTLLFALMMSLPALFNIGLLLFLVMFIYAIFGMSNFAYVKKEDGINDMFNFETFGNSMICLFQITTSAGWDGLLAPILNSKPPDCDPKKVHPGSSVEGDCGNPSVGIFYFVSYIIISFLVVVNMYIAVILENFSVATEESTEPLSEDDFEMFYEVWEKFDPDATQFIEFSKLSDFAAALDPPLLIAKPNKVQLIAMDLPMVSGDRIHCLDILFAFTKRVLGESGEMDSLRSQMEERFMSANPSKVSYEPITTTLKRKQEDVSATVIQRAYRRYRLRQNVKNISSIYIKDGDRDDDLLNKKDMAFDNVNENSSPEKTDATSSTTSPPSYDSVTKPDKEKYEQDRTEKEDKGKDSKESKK
Sequence of Potassium voltage-gated channel subfamily A member 2 (P16389 whole entry): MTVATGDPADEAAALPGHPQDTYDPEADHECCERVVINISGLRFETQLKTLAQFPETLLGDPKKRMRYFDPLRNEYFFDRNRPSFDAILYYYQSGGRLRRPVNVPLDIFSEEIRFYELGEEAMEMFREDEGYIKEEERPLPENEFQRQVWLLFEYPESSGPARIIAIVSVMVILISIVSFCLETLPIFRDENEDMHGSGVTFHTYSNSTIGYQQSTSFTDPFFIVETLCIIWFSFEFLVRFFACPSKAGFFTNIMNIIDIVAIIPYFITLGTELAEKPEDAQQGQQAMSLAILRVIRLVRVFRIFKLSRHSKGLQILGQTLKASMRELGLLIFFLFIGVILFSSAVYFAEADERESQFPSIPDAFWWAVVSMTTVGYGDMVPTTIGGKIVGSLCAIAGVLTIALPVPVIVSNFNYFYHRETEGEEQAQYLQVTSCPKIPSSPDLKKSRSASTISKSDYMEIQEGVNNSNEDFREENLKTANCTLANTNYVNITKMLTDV

SMILES: CNC(=O)C[C@@H]1C[C@@H](c2ccc(F)c(F)c2)[C@H](NC(=O)c2cc(-c3c(Cl)cnn3C)c(Cl)o2)CN1
- inhibition in vivo at 80 mg/kg (SK-OV-3 [1]): 90%
- Vd [2]: 9 L/kg
- inhibition (INH) [3]: Not Active
- inhibition in vivo at 40 mg/kg (SK-OV-3 [4]): 82.5%
- inhibition (INH) [5]: Not Active
- MRT last at 24 h [6]: 5.8 h
- Activity [7]: Non-Toxic
- Activity [8]: Non-Toxic
- IC50 [9]: 0.145 µM
- Activity [10]: Non-Toxic
- MRT last at 48 h [11]: 5.2 h
- IC50 (Protein kinase C (PKC)): 0.094 µM
- inhibition (INH) [12]: Not Active
- remaining at 1.5 h, 100 ug/ml [13]: > 99%
- Activity [14]: Non-Toxic
- Vd [15]: 147.2 L/kg
- AUC(0-t) at 48 h [16]: 21100 ng·h/mL
- remaining at 1.5 h, 100 ug/ml [17]: 84%
- CL/F [18]: 237 mL/min/kg
- IC50 (OVCAR-8): 0.8 µM
- inhibition (INH) [19]: Not Active
- CL/F [20]: 31.7 mL/min/kg
- Activity [21]: Non-Toxic
- MTD at 168 h [22]: ≥ 80 mg/kg
- IC50 (LNCaP): 0.05 µM
- inhibition (INH) [23]: Not Active
- Activity [24]: Toxic
- IC50 [25]: 0.0017 µM
- Activity (SK-OV-3 [26]): 79.9%
- Cmax [27]: 3620 ng/mL
- inhibition in vivo at 60 mg/kg (SK-OV-3 [28]): 79.2%

Source: ChEMBL document CHEMBL4406807, “Discovery of 3,4,6-Trisubstituted Piperidine Derivatives as Orally Active, Low hERG Blocking Akt Inhibitors via Conformational Restriction and Structure-Based Design” (J Med Chem, 2019)
